Strand notation (5' to 3'): a small letter for the sugar, then the base; units joined by * are phosphorothioate-linked, units joined directly phosphodiester-linked; [ ] holds rarer units or linkages, { } end groups; capitals alone tell only the bases. e = 2'-O-(2-methoxyethyl) (MOE); l = locked nucleic acid (LNA); [5mC] = 5-methylcytosine; d = 2'-deoxy (DNA)

For this series, the system named is human ABCB11 mRNA. As to the kind of experiment: ASO treatment of primary human hepatocytes (PHH), ABCB11 mRNA by RT-qPCR normalized to B2M. To be noted: primary human hepatocytes, 5 μM ASO, normalized to untreated PHHs (UNT). The class given is cell-based. The method, boiled down: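 Plated primary human hepatocytes were treated 4 h post-thaw with ASO (e.g., 1.25–10 μM; initial screen 5 μM) in medium containing 0.3 mg/ml Matrigel for 72 hrs. Total RNA was reverse-transcribed and ABCB11 mRNA measured by Taqman RT-qPCR, normalized to B2M, with fold change versus untreated PHHs.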
For “CO-7113 (TACATTTAGAGACAAAGAATCGCT; MOE/LNA gapmer, PS/PO backbone, 5-methylcytosine; listed as DNA; modified_base 1..24: mod_base = OTHER; note = Phosphorothioate linkage; modified_base 1..5: mod_base = OTHER; note = 2'-O-(2-methoxyethyl) ribonucleotide; misc_feature 1..5: note = RNA; misc_feature 6..7: note = DNA; misc_feature 8: note = RNA)”, the “ABCB11 mRNA FC (5 μM ASO vs. UNT)” value is reported as 1.179 fold change.

As for “CO-7114 (eG*eT*eG*eT*eT*eT*dT*dG*d[5mC]*dT*dT*dG*dG*dT*d[5mC]*dA*eA*eG*eA*eG*eG*eA; antisense)”, the “ABCB11 mRNA FC (5 μM ASO vs. UNT)” value came out at 1.47 fold change.

Regarding “CO-7147 (antisense e[5mC]*eT*eT*eA*lG*eG*eA*eG*eG*lA*eT*eT*eA*eT*lT*eT*eA*eA*e[5mC]*e[5mC])”, the “ABCB11 mRNA FC (5 μM ASO vs. UNT)” value is on record as 1.272 fold change.

Take “CO-7148: derivative ASO with additional chemical modifications based on parent ASO CO-4517 (antisense e[5mC]*e[5mC]*eT*eT*eA*eG*dG*dA*dG*dG*dA*dT*dT*dA*dT*dT*eT*eA*eA*e[5mC]*e[5mC]*eT)”: the “ABCB11 mRNA FC (5 μM ASO vs. UNT)” value turned out to be 1.527 fold change.

“CO-7149: derivative ASO with additional chemical modifications based on parent ASO CO-4517 (antisense e[5mC]*e[5mC]*eT*eT*eA*eG*eG*eA*eG*eG*eA*eT*eT*eA*eT*eT*eT*eA*eA*e[5mC]*e[5mC]*eT)”: the “ABCB11 mRNA FC (5 μM ASO vs. UNT)” value is on record as 1.719 fold change.

With “CO-7150: derivative ASO with additional chemical modifications based on parent ASO CO-4517 (antisense e[5mC]*e[5mC]*eT*eT*eA*dG*dG*dA*eG*dG*dA*dT*dT*eA*dT*dT*dT*eA*eA*e[5mC]*e[5mC]*eT)”, the “ABCB11 mRNA FC (5 μM ASO vs. UNT)” value amounted to 1.505 fold change.

Turning to “CO-7151: derivative ASO with additional chemical modifications based on parent ASO CO-4517 (antisense e[5mC]*e[5mC]*eT*eT*eA*lG*dG*dA*lG*dG*dA*dT*dT*lA*dT*dT*lT*eA*eA*e[5mC]*e[5mC]*eT)”, the “ABCB11 mRNA FC (5 μM ASO vs. UNT)” value came to 1.498 fold change.

For the substance “CO-7152 (antisense eA*e[5mC]*e[5mC]*eT*eT*eA*eG*dG*dA*dG*dG*dA*dT*dT*dA*dT*dT*eT*eA*eA*e[5mC]*e[5mC]*eT*e[5mC])”, the “ABCB11 mRNA FC (5 μM ASO vs. UNT)” value is 1.28 fold change.

Take “CO-7153 (antisense eA*e[5mC]*e[5mC]*eT*eT*eA*eG*eG*eA*eG*eG*eA*eT*eT*eA*eT*eT*eT*eA*eA*e[5mC]*e[5mC]*eT*e[5mC])”: the “ABCB11 mRNA FC (5 μM ASO vs. UNT)” value amounted to 1.409 fold change.

Regarding “CO-7154 (antisense eA*e[5mC]*e[5mC]*eT*eT*dA*dG*eG*dA*dG*eG*dA*dT*eT*dA*dT*eT*dT*dA*eA*e[5mC]*e[5mC]*eT*e[5mC])”, the “ABCB11 mRNA FC (5 μM ASO vs. UNT)” value is on record as 1.274 fold change.

Turning to “CO-7155 (antisense eA*e[5mC]*e[5mC]*eT*eT*dA*dG*lG*dA*dG*lG*dA*dT*lT*dA*dT*lT*dT*dA*eA*e[5mC]*e[5mC]*eT*e[5mC])”, the “ABCB11 mRNA FC (5 μM ASO vs. UNT)” value is recorded as 1.253 fold change.

“CO-7157 (antisense eG*eT*eG*eG*eA*dG*d[5mC]*dA*dA*dA*d[5mC]*dT*dA*dG*dG*e[5mC]*eA*e[5mC]*eT*eG)”: the “ABCB11 mRNA FC (5 μM ASO vs. UNT)” value turned out to be 1.195 fold change.

Consider “CO-7158 (antisense eA*eG*eG*eT*eG*eG*eA*eG*e[5mC]*eA*eA*eA*e[5mC]*eT*eA*eG*eG*e[5mC]*eA*e[5mC])”, for which the “ABCB11 mRNA FC (5 μM ASO vs. UNT)” value was found to be 1.229 fold change.

Regarding “CO-7159 (antisense eG*eG*eA*eG*eG*eT*eG*eG*eA*eG*e[5mC]*eA*eA*eA*e[5mC]*eT*eA*eG*eG*e[5mC])”, the “ABCB11 mRNA FC (5 μM ASO vs. UNT)” value turned out to be 1.326 fold change.

In the case of “CO-7160 (antisense eT*eG*eT*eG*eG*eA*eG*eG*eT*eG*eG*eA*eG*e[5mC]*eA*eA*eA*e[5mC]*eT*eA)”, the “ABCB11 mRNA FC (5 μM ASO vs. UNT)” value turned out to be 1.312 fold change.

Turning to “CO-7161 (antisense eG*eA*eT*eG*eT*eG*eG*eA*eG*eG*eT*eG*eG*eA*eG*e[5mC]*eA*eA*eA*e[5mC])”, the “ABCB11 mRNA FC (5 μM ASO vs. UNT)” value was determined as 1.324 fold change.

For “CO-7163 (antisense e[5mC]*eA*eG*eA*e[5mC]*eA*eT*eG*eA*eT*eG*eT*eG*eG*eA*eG*eG*eT*eG*eG)”, the “ABCB11 mRNA FC (5 μM ASO vs. UNT)” value came out at 1.308 fold change.

On to “CO-7164 (antisense eA*eT*eT*e[5mC]*eT*eA*e[5mC]*eA*eG*eA*eG*eG*eG*eA*eG*e[5mC]*eA*eT*eA*eA)”, for which the “ABCB11 mRNA FC (5 μM ASO vs. UNT)” value came to 1.178 fold change.

Turning to “CO-7165 (antisense eT*eT*eA*eA*eT*eT*e[5mC]*eT*eA*e[5mC]*eA*eG*eA*eG*eG*eG*eA*eG*e[5mC]*eA)”, the “ABCB11 mRNA FC (5 μM ASO vs. UNT)” value is listed as 1.329 fold change.

Take “CO-7166: derivative ASO with additional chemical modifications based on parent ASO CO-4535 (antisense eG*eT*eT*eA*eT*eT*eA*eA*eT*eT*e[5mC]*eT*eA*e[5mC]*eA*eG*eA*eG*eG*eG)”: the “ABCB11 mRNA FC (5 μM ASO vs. UNT)” value came to 1.517 fold change.

Consider “CO-7167 (antisense eG*eG*e[5mC]*eG*eT*eT*eA*eT*eT*eA*eA*eT*eT*e[5mC]*eT*eA*e[5mC]*eA*eG*eA)”, for which the “ABCB11 mRNA FC (5 μM ASO vs. UNT)” value worked out at 1.403 fold change.

“CO-7168 (antisense eT*eG*eG*e[5mC]*eG*dT*dT*dA*dT*dT*dA*dA*dT*dT*d[5mC]*eT*eA*e[5mC]*eA*eG)”: the “ABCB11 mRNA FC (5 μM ASO vs. UNT)” value amounted to 1.301 fold change.

Consider “CO-7169 (antisense eT*eT*eA*eT*eT*eT*eG*eG*e[5mC]*eG*eT*eT*eA*eT*eT*eA*eA*eT*eT*e[5mC])”, for which the “ABCB11 mRNA FC (5 μM ASO vs. UNT)” value amounted to 1.289 fold change.

Take “CO-7170 (antisense eT*e[5mC]*eT*eT*eA*eT*eT*eT*eG*eG*e[5mC]*eG*eT*eT*eA*eT*eT*eA*eA*eT)”: the “ABCB11 mRNA FC (5 μM ASO vs. UNT)” value is 1.477 fold change.

In the case of “CO-7171 (antisense eA*eG*eT*e[5mC]*eT*eT*eA*eT*eT*eT*eG*eG*e[5mC]*eG*eT*eT*eA*eT*eT*eA)”, the “ABCB11 mRNA FC (5 μM ASO vs. UNT)” value is 1.46 fold change.

“CO-7177 (antisense eG*eT*eG*eG*lA*dG*d[5mC]*dA*lA*dA*d[5mC]*dT*lA*dG*dG*e[5mC]*lA*e[5mC]*eT*eG)”: the “ABCB11 mRNA FC (5 μM ASO vs. UNT)” value was found to be 1.455 fold change.

Regarding “CO-7178: derivative ASO with additional chemical modifications based on parent ASO CO-4529 (antisense eG*eT*eG*lG*eA*lG*e[5mC]*lA*eA*lA*e[5mC]*lT*eA*lG*eG*l[5mC]*eA*l[5mC]*eT*eG)”, the “ABCB11 mRNA FC (5 μM ASO vs. UNT)” value came out at 1.737 fold change.

As for “CO-7179: derivative ASO with additional chemical modifications based on parent ASO CO-4529 (antisense eG*eT*lG*eG*lA*eG*l[5mC]*eA*lA*eA*l[5mC]*eT*lA*eG*lG*e[5mC]*lA*e[5mC]*eT*eG)”, the “ABCB11 mRNA FC (5 μM ASO vs. UNT)” value turned out to be 2.344 fold change.

On to “CO-7180: derivative ASO with additional chemical modifications based on parent ASO CO-4529 (antisense eG*eT*lG*eG*eA*lG*e[5mC]*eA*lA*eA*e[5mC]*lT*eA*eG*lG*e[5mC]*eA*l[5mC]*eT*eG)”, for which the “ABCB11 mRNA FC (5 μM ASO vs. UNT)” value is reported as 2.04 fold change.

Take “CO-7181: derivative ASO with additional chemical modifications based on parent ASO CO-4529 (antisense eG*eT*eG*eG*lA*eG*e[5mC]*eA*lA*eA*e[5mC]*eT*lA*eG*eG*e[5mC]*lA*e[5mC]*eT*eG)”: the “ABCB11 mRNA FC (5 μM ASO vs. UNT)” value was determined as 1.603 fold change.

Turning to “CO-7182: derivative ASO with additional chemical modifications based on parent ASO CO-4529 (antisense eG*eT*eG*lG*eA*eG*e[5mC]*lA*eA*eA*e[5mC]*lT*eA*eG*eG*l[5mC]*eA*e[5mC]*eT*eG)”, the “ABCB11 mRNA FC (5 μM ASO vs. UNT)” value is listed as 1.572 fold change.

On to “CO-7183 (antisense eG*eT*eG*eG*eA*lG*e[5mC]*eA*eA*eA*l[5mC]*eT*eA*eG*eG*l[5mC]*eA*e[5mC]*eT*eG)”, for which the “ABCB11 mRNA FC (5 μM ASO vs. UNT)” value is reported as 1.295 fold change.

Turning to “CO-7184: derivative ASO with additional chemical modifications based on parent ASO CO-4529 (antisense eG*eT*eG*eG*lA*eG*e[5mC]*eA*eA*lA*e[5mC]*eT*eA*eG*lG*e[5mC]*eA*e[5mC]*eT*eG)”, the “ABCB11 mRNA FC (5 μM ASO vs. UNT)” value came to 1.582 fold change.

Regarding “CO-7185 (antisense eT*eG*eG*e[5mC]*eG*lT*dT*dA*lT*dT*dA*lA*dT*dT*l[5mC]*eT*eA*e[5mC]*eA*eG)”, the “ABCB11 mRNA FC (5 μM ASO vs. UNT)” value was found to be 1.327 fold change.

“CO-7186: derivative ASO with additional chemical modifications based on parent ASO CO-4535 (antisense eT*eG*eG*l[5mC]*eG*dT*dT*lA*dT*dT*dA*lA*dT*dT*d[5mC]*lT*eA*e[5mC]*eA*eG)”: the “ABCB11 mRNA FC (5 μM ASO vs. UNT)” value is recorded as 1.85 fold change.

Regarding “CO-7187: derivative ASO with additional chemical modifications based on parent ASO CO-4535 (antisense eT*eG*eG*e[5mC]*lG*dT*dT*dA*lT*dT*dA*dA*lT*dT*d[5mC]*eT*lA*e[5mC]*eA*eG)”, the “ABCB11 mRNA FC (5 μM ASO vs. UNT)” value was 1.544 fold change.

Regarding “CO-7188: derivative ASO with additional chemical modifications based on parent ASO CO-4535 (antisense eT*eG*eG*l[5mC]*eG*lT*eT*lA*eT*lT*eA*lA*eT*lT*e[5mC]*lT*eA*l[5mC]*eA*eG)”, the “ABCB11 mRNA FC (5 μM ASO vs. UNT)” value was 1.697 fold change.

These data come from patent US20250320496A1, “MODULATION OF ABCB11 GENE TRANSCRIPTION USING ANTISENSE OLIGONUCLEOTIDES TARGETING REGULATORY RNAS” (CAMP4 Therapeutics Corporation, priority 2022, published 2025).
